Activity calls are given as the source filed them.
Columns and labels:
[1] = target: DNA dC->dU-editing enzyme APOBEC-3G (Homo sapiens, UniProt Q9HC16); type: functional;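 further: Dose-response counterscreen measuring inhibition of APOBEC3G DNA deaminase activity, run while confirming APOBEC3A inhibitors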
[2] = target: DNA dC->dU-editing enzyme APOBEC-3A (Homo sapiens, UniProt P31941); test: Dose Response confirmation of small molecule APOBEC3A DNA Deaminase Inhibitors via a fluorescence-based single-stranded DNA deaminase assay. [Related pubchem assays (depositor defined):AID493011, AID493024]; type: functional
[3] = MIN6 cell viability loss – mouse insulinoma, cytotoxicity control, dose response (AID 2122); type: functional;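 further: confirmatory high-throughput counterscreen run to flag cytotoxic compounds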
[4] = decrease of insulin promoter-GFP reporter – imaging, high-content screening, mouse beta cells (AID 1628); type: functional; conditions: MIN6
[5] = activation of miR-122 Renilla sensor silencing – cell-based, Huh7 psiCHECK-miR122, Renilla luciferase, cherry-picked, dose response (AID 651956); type: functional;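 further: huh7 hepatoma cells stably carrying a psiCHECK-2 miR-122 sensor plasmid; renilla luciferase signal reporting endogenous miR-122 activity after 48 h compound exposure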
[6] = general mammalian cell viability loss – inhibitor set, cherry-pick, set 2, cytotoxicity control for miR-122 modulator project, dose response (AID 720697); type: functional, cell-based
Coagulation factor XII = target: T1, Coagulation factor XII (Homo sapiens, UniProt P00748); test: activated coagulation factor XII inhibitor potency, concentration-effect curve, cell-free (AID 716); type: functional
T1 sequence (P00748 whole entry): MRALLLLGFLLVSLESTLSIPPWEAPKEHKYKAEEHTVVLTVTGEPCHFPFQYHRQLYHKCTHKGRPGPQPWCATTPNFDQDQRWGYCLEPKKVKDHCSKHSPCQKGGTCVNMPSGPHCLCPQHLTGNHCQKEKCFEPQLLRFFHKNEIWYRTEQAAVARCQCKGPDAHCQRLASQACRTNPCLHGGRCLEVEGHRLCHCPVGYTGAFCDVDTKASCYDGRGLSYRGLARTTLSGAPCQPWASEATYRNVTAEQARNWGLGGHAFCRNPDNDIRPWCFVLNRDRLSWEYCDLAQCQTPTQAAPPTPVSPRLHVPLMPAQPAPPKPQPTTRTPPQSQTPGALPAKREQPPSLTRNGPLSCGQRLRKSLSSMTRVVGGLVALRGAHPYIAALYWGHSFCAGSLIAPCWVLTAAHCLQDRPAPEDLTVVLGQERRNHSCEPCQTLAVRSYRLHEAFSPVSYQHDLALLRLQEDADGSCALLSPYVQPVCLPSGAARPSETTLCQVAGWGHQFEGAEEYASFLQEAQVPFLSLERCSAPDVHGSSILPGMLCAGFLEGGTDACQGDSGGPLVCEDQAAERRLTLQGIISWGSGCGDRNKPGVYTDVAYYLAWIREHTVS

[7] = HEK-293T viability loss after treatment – luminescence, T-cell screen hits, cytotoxicity control for TCR NF-kB inhibitor project, dose response (AID 489026); type: functional, cell-based;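 further: cells exposed to compound about 14 hours before the viability readout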
[8] = target: T2, COUP transcription factor 2 (Homo sapiens, UniProt P24468); test: Luminescence-based cell-based high throughput dose response assay to identify inhibitors of COUP-TFII (NR2F2).; type: functional;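 further: HEK293 cells transiently cotransfected with COUP-TFII expression vector and reporter; luciferase reporter luminescence driven by COUP-TFII from the pX2-168 reporter plasmid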
T2 sequence (P24468 whole entry): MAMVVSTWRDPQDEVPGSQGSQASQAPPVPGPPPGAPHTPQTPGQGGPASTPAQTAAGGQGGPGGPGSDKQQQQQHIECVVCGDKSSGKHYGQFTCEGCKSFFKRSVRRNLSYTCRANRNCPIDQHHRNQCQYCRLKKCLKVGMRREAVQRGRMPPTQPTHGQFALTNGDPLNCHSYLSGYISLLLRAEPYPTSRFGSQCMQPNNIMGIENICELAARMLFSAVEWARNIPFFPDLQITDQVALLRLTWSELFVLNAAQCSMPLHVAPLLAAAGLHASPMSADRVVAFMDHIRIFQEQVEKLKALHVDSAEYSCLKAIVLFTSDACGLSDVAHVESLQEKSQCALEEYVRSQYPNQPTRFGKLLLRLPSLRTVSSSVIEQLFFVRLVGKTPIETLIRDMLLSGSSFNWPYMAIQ

Escherichia coli = test: microbe, parasite or virus in culture
[9] = target: T3, Serine/threonine-protein phosphatase (Candida dubliniensis (strain CD36 / CBS 7987 / NCPF 3949 / NRRLY-17841) (Yeast), UniProt B9W6M3); test: blockers of CaCl2-induced CDRE-lacZ signaling – S. cerevisiae, luminescence, secondary, dose response (AID 2388); type: functional, cell-based;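 further: yeast reporter cells carrying a calcineurin-responsive lacZ construct stimulated with calcium chloride; luminescent beta-galactosidase reporter signal in whole cells rather than isolated phosphatase activity; potency for inhibition where a drop in reporter signal means calcineurin blockade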
T3 sequence (B9W6M3 whole entry): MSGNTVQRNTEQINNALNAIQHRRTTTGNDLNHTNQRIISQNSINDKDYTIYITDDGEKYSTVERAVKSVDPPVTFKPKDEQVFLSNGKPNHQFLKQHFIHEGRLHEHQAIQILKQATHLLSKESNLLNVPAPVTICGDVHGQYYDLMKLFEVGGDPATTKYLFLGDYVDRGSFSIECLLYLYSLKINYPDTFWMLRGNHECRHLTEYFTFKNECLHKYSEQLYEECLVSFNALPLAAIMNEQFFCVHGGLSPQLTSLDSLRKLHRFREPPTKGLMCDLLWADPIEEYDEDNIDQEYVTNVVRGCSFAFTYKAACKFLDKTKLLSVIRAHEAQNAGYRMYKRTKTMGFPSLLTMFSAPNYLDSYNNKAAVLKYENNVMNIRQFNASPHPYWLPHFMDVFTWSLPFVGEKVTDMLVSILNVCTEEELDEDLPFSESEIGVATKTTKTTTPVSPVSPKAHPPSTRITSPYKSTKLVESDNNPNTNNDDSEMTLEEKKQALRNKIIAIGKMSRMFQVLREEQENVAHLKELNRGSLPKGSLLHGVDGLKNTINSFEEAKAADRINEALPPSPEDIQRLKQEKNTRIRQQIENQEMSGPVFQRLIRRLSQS

[10] = fluconazole-exposed Candida albicans growth modulators – fluorescence, retest, confirmation (AID 2467); type: functional, cell-based
[11] = target: ATP-dependent molecular chaperone HSP82 (Candida albicans (strain WO-1) (Yeast), UniProt C4YTQ8); test: steroid-induced GRE reporter decrease in yeast – S. cerevisiae, luminescence, Hsp90 inhibitor project, dose response (AID 2400); type: functional, cell-based;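 further: beta-galactosidase luminescence from glucocorticoid response element reporter as proxy for Hsp90 function; inhibitor potency where signal loss means Hsp90 inhibition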
[12] = NIH-3T3 fibroblast cytotoxicity, dose response, cytotoxicity control, cell-based, fluorescence, Alamar Blue, secondary assay (AID 2327); type: functional;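 further: NIH-3T3 mouse fibroblasts cultured with fluconazole at 8 µg/mL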
Tumor necrosis factor = Tumor necrosis factor (Homo sapiens, UniProt P01375); test: analog potency on TNFa NF-kB signaling – cell-based, revised, SAR follow-up (AID 2337); type: functional
[13] = target: T4, Nucleotide-binding oligomerization domain-containing protein 1 (Homo sapiens, UniProt Q9Y239); test: blockers of NOD1 pathway activity – revised, SAR follow-up (AID 2333); type: functional
T4 sequence (Q9Y239 whole entry): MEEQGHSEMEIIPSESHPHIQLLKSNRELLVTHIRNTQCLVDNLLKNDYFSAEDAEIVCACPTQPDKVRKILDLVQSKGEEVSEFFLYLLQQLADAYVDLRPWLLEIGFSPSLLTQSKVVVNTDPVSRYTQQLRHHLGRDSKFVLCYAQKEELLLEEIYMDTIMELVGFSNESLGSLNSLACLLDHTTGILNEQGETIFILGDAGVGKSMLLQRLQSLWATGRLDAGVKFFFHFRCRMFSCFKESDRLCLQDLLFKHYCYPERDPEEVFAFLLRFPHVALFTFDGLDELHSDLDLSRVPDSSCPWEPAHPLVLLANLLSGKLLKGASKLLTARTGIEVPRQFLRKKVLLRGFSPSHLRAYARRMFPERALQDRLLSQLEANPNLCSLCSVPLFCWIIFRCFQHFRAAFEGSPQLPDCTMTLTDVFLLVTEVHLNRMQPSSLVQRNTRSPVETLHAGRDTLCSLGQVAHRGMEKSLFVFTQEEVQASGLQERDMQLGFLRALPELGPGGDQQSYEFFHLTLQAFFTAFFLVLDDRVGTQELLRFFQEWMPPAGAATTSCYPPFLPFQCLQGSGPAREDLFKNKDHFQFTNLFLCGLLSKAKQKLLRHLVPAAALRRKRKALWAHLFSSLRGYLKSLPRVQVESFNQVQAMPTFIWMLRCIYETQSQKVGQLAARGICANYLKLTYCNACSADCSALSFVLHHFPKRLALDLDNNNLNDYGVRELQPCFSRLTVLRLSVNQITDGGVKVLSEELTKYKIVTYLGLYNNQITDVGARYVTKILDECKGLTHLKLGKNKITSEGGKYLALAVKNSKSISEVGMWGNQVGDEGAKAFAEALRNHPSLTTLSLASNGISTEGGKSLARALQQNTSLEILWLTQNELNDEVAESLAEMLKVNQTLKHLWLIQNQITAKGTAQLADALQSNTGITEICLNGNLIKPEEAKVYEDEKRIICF

HEK293 [14] = test: cells; type: functional, cell-based; conditions: Homo sapiens
HEK293 [15] = test: cells; conditions: Homo sapiens
HEK293 [16] = test: NOD2 signaling inhibitors in MDP-stimulated cells, cell-based, uHTS, luminescence (AID 2001); type: functional; conditions: Homo sapiens
HEK293 [17] = test: inhibition of NOD1-driven NF-kB reporter – cell-based, luminescence, uHTS, primary screen (AID 1578); type: functional; conditions: Homo sapiens
HEK293 [18] = test: cells; type: functional, cell-based; conditions: Homo sapiens; remark: listed apart in the source
[19] = target: T5, Zinc finger protein mex-5 (Caenorhabditis elegans, UniProt Q9XUB2); test: potency of MEX-5 RNA-binding blockers – biochemical, C. elegans, fluorescence polarization, dose response (AID 1960)
T5 sequence (Q9XUB2 whole entry): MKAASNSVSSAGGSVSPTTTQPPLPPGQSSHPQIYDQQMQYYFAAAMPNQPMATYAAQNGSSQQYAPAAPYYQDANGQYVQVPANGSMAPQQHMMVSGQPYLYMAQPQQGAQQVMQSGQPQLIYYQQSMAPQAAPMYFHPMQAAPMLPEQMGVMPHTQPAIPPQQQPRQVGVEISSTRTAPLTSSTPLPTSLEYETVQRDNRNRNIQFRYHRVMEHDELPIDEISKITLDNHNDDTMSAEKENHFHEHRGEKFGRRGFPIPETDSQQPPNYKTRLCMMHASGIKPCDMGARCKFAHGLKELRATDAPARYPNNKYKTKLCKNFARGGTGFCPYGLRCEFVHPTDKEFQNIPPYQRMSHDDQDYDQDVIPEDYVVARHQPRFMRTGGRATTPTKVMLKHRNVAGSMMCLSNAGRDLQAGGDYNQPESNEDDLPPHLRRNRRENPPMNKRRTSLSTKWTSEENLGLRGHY

[20] = Counterscreen for activators of the function of SWI/SNF related, matrix associated, actin dependent regulator of chromatin, subfamily a, member 2 (SMARCA2, BRM): Luminescence-based cell-based high throughput dose response assay to identify non-selective compounds using the VP16 reporter assay.; type: functional
[21] = target: T6, RNA-binding protein pos-1 (Caenorhabditis elegans, UniProt G5EF15); test: disruptors of C. elegans POS-1 RNA interaction – biochemical, fluorescence polarization, dose response (AID 1964);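 further: purified POS-1 fused to maltose binding protein made in E. coli; potency of compounds blocking POS-1 binding to fluorescent RNA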
T6 sequence (G5EF15 whole entry): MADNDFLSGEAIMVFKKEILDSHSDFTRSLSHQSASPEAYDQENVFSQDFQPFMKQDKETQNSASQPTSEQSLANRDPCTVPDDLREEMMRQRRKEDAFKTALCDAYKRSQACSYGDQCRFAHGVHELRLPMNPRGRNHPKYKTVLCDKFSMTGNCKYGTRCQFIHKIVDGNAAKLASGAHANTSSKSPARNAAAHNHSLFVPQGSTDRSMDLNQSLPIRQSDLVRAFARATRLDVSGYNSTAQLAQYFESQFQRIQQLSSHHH

[22] = target: SWI/SNF-related matrix-associated actin-dependent regulator of chromatin subfamily A member 2 (Homo sapiens, UniProt P51531); test: Luminescence-based cell-based high throughput dose response assay to identify activators of the function of SWI/SNF related, matrix associated, actin dependent regulator of chromatin, subfamily a, member 2 (SMARCA2, BRM).; type: functional
Chain of SWI/SNF-related matrix-associated actin-dependent regulator of chromatin subfamily A member 2 (P51531 whole entry): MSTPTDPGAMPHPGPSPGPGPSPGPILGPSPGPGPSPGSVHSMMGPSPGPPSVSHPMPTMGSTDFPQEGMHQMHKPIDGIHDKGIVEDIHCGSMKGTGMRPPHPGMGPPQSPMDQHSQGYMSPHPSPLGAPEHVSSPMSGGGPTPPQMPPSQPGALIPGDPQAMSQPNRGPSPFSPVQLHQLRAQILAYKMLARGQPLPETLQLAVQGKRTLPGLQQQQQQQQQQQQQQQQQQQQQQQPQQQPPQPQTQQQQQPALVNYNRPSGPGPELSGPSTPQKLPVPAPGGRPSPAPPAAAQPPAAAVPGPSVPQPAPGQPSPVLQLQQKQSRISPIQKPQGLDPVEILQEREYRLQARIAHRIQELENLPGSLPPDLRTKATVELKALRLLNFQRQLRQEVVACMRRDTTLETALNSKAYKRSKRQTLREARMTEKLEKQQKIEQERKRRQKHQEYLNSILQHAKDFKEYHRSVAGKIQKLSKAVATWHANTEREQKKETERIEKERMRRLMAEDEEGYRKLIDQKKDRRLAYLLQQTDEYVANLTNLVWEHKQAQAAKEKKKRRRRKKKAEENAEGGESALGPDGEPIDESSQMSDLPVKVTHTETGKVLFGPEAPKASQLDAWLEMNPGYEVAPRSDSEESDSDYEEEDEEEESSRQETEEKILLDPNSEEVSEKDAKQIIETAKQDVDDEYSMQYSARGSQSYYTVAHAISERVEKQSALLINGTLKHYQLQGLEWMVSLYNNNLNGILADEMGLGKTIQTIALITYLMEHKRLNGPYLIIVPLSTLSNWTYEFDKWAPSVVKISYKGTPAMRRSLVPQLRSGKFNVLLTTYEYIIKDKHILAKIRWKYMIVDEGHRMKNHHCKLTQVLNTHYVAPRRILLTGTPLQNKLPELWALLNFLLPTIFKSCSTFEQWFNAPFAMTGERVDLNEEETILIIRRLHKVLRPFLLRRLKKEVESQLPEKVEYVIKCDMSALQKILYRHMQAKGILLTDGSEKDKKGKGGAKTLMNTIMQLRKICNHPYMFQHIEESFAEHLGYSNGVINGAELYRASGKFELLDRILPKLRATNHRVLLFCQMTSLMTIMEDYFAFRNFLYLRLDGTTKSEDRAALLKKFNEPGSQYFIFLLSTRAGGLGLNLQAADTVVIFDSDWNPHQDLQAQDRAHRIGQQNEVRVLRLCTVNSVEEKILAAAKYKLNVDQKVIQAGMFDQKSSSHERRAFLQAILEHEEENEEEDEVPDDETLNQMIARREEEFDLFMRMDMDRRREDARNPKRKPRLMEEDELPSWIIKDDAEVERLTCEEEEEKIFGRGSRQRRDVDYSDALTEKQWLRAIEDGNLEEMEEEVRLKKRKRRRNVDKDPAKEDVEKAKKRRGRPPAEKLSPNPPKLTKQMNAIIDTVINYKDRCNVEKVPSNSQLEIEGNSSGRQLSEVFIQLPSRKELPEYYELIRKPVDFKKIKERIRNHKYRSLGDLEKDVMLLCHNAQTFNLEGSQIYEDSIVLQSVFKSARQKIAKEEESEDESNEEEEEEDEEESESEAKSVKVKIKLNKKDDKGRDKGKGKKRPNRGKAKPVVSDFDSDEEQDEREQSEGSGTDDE

Chain of DNA dC->dU-editing enzyme APOBEC-3G (Q9HC16 whole entry): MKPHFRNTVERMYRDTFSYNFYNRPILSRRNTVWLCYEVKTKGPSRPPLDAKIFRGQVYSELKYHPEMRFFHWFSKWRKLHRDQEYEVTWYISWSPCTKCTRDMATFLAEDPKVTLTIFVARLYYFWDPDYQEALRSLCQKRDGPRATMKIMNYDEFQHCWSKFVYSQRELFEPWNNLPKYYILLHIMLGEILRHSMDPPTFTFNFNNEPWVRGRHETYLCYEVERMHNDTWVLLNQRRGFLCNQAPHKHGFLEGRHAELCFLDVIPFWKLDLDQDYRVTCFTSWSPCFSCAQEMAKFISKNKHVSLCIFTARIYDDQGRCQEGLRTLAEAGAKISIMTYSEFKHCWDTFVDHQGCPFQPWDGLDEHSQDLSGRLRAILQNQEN
Chain of DNA dC->dU-editing enzyme APOBEC-3A (P31941 whole entry): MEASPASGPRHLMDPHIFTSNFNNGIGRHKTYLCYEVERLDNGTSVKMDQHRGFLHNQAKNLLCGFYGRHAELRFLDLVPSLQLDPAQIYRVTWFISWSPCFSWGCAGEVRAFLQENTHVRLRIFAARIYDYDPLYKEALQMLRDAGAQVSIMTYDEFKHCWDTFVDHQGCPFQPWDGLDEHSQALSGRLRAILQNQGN
Chain of Tumor necrosis factor (P01375 whole entry, the tested form may be a part): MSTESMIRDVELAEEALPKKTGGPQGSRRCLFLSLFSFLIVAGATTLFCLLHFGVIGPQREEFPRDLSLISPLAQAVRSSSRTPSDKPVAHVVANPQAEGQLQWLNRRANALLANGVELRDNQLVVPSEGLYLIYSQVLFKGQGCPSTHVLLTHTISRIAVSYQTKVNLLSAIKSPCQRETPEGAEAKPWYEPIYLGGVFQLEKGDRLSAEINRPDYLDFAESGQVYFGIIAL
Chain of ATP-dependent molecular chaperone HSP82 (C4YTQ8 whole entry): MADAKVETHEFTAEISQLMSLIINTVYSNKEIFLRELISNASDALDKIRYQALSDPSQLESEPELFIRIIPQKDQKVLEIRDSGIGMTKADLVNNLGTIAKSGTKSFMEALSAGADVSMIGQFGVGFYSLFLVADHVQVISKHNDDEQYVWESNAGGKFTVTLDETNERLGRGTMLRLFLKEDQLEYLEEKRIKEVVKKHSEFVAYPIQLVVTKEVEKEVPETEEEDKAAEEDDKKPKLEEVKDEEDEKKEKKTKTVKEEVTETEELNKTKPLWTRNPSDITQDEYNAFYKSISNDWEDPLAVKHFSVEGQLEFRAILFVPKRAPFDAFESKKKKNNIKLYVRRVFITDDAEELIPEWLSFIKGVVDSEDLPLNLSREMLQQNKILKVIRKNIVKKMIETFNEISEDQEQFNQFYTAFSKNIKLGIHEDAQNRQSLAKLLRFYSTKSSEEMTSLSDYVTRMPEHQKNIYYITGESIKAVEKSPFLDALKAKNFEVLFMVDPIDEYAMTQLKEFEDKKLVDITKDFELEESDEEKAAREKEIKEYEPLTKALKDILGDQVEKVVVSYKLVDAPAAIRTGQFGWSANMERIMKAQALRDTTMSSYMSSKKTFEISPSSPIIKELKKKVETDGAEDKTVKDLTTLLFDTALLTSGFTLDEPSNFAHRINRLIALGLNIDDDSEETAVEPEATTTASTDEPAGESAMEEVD

COc1cc(C(N)=O)cc(Br)c1OC
IC50 [1]: 12.2 µM (active) | IC50 [2]: 9.8 µM (active)

COc1cc(-c2nnc3sc(C4CCCCC4)nn23)cc(OC)c1OC
IC50 [3]: 9.75 µM (active) | IC50 [4]: 0.981 µM (active) | AC50 [5]: 55.5 µM (active) | AC50 [6]: 1.08 µM (active)

C=CCSc1nnc(Cc2cc(O)nc(O)n2)n1-c1cc(C)ccc1C
IC50 (Coagulation factor XII): > 50 µM (inactive)

CCCCn1c2c(c(=N)c3c1CCC3)CCC2
IC50 [3]: 1.97 µM (active) | IC50 [7]: > 80 µM (inactive) | IC50 [8]: 19.1 µM (inactive) | IC50 [4]: 1.47 µM (active)

COCCn1c(-c2cccc([N+](=O)[O-])c2)nc2c1c(=O)[nH]c(=O)n2Cc1ccccc1
AC50 (Escherichia coli): > 380 µM (inactive)

CCSc1nnc(-c2ccc(C)cc2)c2ccccc12
EC50 [9]: 24.7 µM (active) | EC50 [10]: 0.305 µM (active) | EC50 [11]: 62.4 µM (active) | EC50 [12]: 17.2 µM (active)

CC1CCC(C(C)C)C(OCC(O)C[N+]2(C)CCCCC2)C1 (centres undefined)
IC50 [1]: 3.66 µM (active) | IC50 [2]: 2.6 µM (active)

CC(=O)N1c2ccc(S(=O)(=O)N3CCC(C(=O)Nc4cccc(C)n4)CC3)cc2CC1C (centres undefined)
IC50 (Tumor necrosis factor): 6.02 µM (active) | IC50 [7]: > 80 µM (inactive) | IC50 [13]: 4.8 µM (active) | IC50 (HEK293 [14]): > 20 µM (inactive) | IC50 (HEK293 [15]): > 20 µM (inactive) | IC50 (HEK293 [16]): 12.4 µM (inactive) | EC50 (HEK293 [17]): 2.79 µM (active) | IC50 (HEK293 [18]): 8.99 µM (active)

CC(=O)c1cccc(NS(=O)(=O)c2c(C)noc2C)c1
IC50 (Coagulation factor XII): > 50 µM (inactive)

Cc1ccc(N=Nc2[nH]c3ccccc3c2O)cc1
EC50 [19]: 25.7 µM (inconclusive) | IC50 [1]: 7.69 µM (active) | EC50 [20]: > 91.1 µM (inactive) | IC50 [2]: 4.8 µM (active) | EC50 [21]: 16 µM (active) | EC50 [22]: > 91.1 µM (inactive)

Cc1nnc(C)c2c(C)n(C(C)c3ccccc3)c(C)c12 (centres undefined)
IC50 [3]: 2.6 µM (active) | IC50 [4]: 2.5 µM (active)

CC(C)(C)c1ccc(C(=O)ONC(=N)c2cccc([N+](=O)[O-])c2)cc1
IC50 (Tumor necrosis factor): > 20 µM (inactive) | IC50 [13]: > 20 µM (inactive)

CCO/C(O)=C1\C(C)=NC(=S)NC1c1cc(C)sc1C (centres undefined)
AC50 (Escherichia coli): 147 µM (active)

CN1CCN(C(=O)c2ccc3c(=O)n(Cc4ccc(Cl)cc4)c(=S)[nH]c3c2)CC1
IC50 (Coagulation factor XII): > 50 µM (inactive)
